In this experiment the test system is xylene-induced ear swelling. Put plainly: Mouse ear swelling model (xylene-induced). The class given is in vivo, BALB/c mice. The conditions noted are these: for Swelling rate: (right ear weight - left ear weight)/left ear weight x 100, about 0.1 g gel (peptide 0.5 mg/g) or Dex cream on right ear 1 hour before 20 μL xylene, ears taken 40 minutes after xylene, 5 mice per group; for anti-inflammatory effects compared with the other peptides tested: xylene mouse ear swelling, topical gels 0.5 mg/g. How it is done: 35 Health male BALB/c mice with 6-8 weeks old and average body weight of 18-25 g were supplied from Changzhou Cvens Experimental Animal Co., Ltd. and housed and cared for about 1 week prior to the experiment. The housing temperature was around 25 to 27 ° C. with 74% humidity, alternating 12-hour periods of light and darkness, and free access to food and water. The mice were randomly divided into 7 groups as described in Table 5 below, with 5 mice in each group. [table] Dexamethasone acetate cream (Dex cream; 5 mg/10 g (which means that there was 5 mg Dex contained in 10 g of the cream), Fuyuan Pharmaceutical Co. Ltd., Anhui, China) was used as positive control. The left ear of each mouse was used as an autologous control. The right ear of each mouse was treated with the above compounds in the stated concentrations. About 0.1 g of the various gels, and Dex cream were applied to the right ear of mice in each group, both inside and outside. The blank gel base was applied on the ears in the model groups. After 1 hour, 20 μL of xylene (Shanghai Aladdin Bio-Chem Technology Co., Ltd.) was applied to the same ear of each mouse. The mice were sacrificed by cervical dislocation 40 minutes after xylene application. The left and right ears were cut off. An EMS skin biopsy punch with a diameter of 8 mm was used to take a piece of the ear from the same site on both ears. The weights were recorded, and the swelling rate was calculated as a percentage according to the following formula: (right ear weight−left ear weight)/left ear weight×100

Where no end group is shown, it is not given here. [ ]: non-standard residue; d: D form. The star is where a group is joined. Dihydrocaffeoyl = O=C(CCc1ccc(O)c(O)c1)*; Dopa = N[C@@H](Cc1ccc(O)c(O)c1)C(=O)O; Hyp = O=C(O)[C@@H]1C[C@@H](O)CN1

For “58 (KAKPS[Dopa][Hyp][Hyp]T-dopamine) [compound 58]”, the Swelling rate is reported as 43% and the “anti-inflammatory effects compared with the other peptides tested” value is listed as “stronger than the other peptide compounds tested”.

For the substance “22 (Dihydrocaffeoyl-KPS[Dopa][Hyp]TA[Hyp]K) [compound 22]”, the Swelling rate was 40% and the “anti-inflammatory effects compared with the other peptides tested” value was “stronger than the other peptide compounds tested”.

Turning to “18 (Dihydrocaffeoyl-AKPS[Dopa][Hyp][Hyp]T[Dopa]K) [compound 18]”, the Swelling rate was 57%.

Consider “15 (Dihydrocaffeoyl-AKPS[Dopa][Hyp]T[Dopa][Hyp]K) [compound 15]”, for which the Swelling rate was 63%.

The record behind these values is patent publication US20240218016A1, “PEPTIDES AND THEIR USE IN THE TREATMENT OF INFLAMMATION” (Shenzhen Institutes of Advanced Technology, priority 2019, published 2024).
